Data on six molecules can be found in paper PMC9409388 (2022).

Assay [1] deals with c-MYC (DNA, G4) GGGGAGGGTGGGGAGGGTGGGGAAGG
The assay is described as follows: thiazole orange displacement (G4-FID). The following applies: 100 mM KCl; 10 mM sodium cacodylate pH 7.3, 18 °C; thiazole orange displaced; from DC50, TO Kb 1.50 × 10^6.

Assay [2] relates to WNT1 (DNA, G4) GGGGGCCACCGGGCAGGGGGCGGGGG
The assay is described as follows: thiazole orange displacement (G4-FID). The following applies: 100 mM KCl; 10 mM sodium cacodylate pH 7.3, 18 °C; thiazole orange displaced; from DC50, assumed TO Kb 2.5 × 10^6.

Assay [3] concerns VEGF (VEGFA) (DNA, G4) GGGGCGGGCCGGGGGCGGGG
In words: thiazole orange displacement (G4-FID). As to conditions: 100 mM KCl; 10 mM sodium cacodylate pH 7.3, 18 °C; thiazole orange displaced; from DC50, assumed TO Kb 2.5 × 10^6.

Assay [4] relates to c-KIT (DNA, G4) GGGAGGGCGCTGGGAGGAGGG
In words: thiazole orange displacement (G4-FID). The following applies: 100 mM KCl; 10 mM sodium cacodylate pH 7.3, 18 °C; thiazole orange displaced; from DC50, assumed TO Kb 2.5 × 10^6.

Assay [5] concerns BCL2 (DNA, G4) AGGGGCGGGCGCGGGAGGAAGGGGGCGGGAGCGGGGC
In words: thiazole orange displacement (G4-FID). The following applies: 100 mM KCl; 10 mM sodium cacodylate pH 7.3, 18 °C; thiazole orange displaced; from DC50, assumed TO Kb 2.5 × 10^6.

In assay [6] the test system is KRAS (DNA, G4) GGGCGGTGTGGGAAGAGGGAAGAGGGGGAGG
The assay is described as follows: thiazole orange displacement (G4-FID). As to conditions: 100 mM KCl; 10 mM sodium cacodylate pH 7.3, 18 °C; thiazole orange displaced; from DC50, assumed TO Kb 2.5 × 10^6.

In assay [7] the test system is Tel (DNA, G4) GGGTTAGGGTTAGGGTTAGGGTTA
The assay is described as follows: thiazole orange displacement (G4-FID). The following applies: 100 mM KCl; 10 mM sodium cacodylate pH 7.3, 18 °C; thiazole orange displaced; from DC50, TO Kb 2.62 × 10^6.

Assay [8] relates to DNA hairpin (DNA, hairpin) CAATCGGATCGAATTCGATCCGATTG
The assay is described as follows: thiazole orange displacement (G4-FID). The following applies: 100 mM KCl, 10 mM sodium cacodylate pH 7.3, 18 °C, thiazole orange displaced; for Kb: from DC50, TO Kb 3.03 × 10^6.

For assay [9], the system named is c-MYC (DNA, G4) GGGGAGGGTGGGGAGGGTGGGGAAGG
The assay is described as follows: thiazole orange displacement (G4-FID). The following applies: 100 mM KCl; 10 mM sodium cacodylate pH 7.3, 18 °C; 1 µM thiazole orange displaced, 0.5 µM DNA.

For assay [10], the system named is WNT1 (DNA, G4) GGGGGCCACCGGGCAGGGGGCGGGGG
In words: thiazole orange displacement (G4-FID). The following applies: 100 mM KCl, 10 mM sodium cacodylate pH 7.3, 18 °C.

For assay [11], the system named is VEGF (VEGFA) (DNA, G4) GGGGCGGGCCGGGGGCGGGG
The assay is described as follows: thiazole orange displacement (G4-FID). As to conditions: 100 mM KCl, 10 mM sodium cacodylate pH 7.3, 18 °C.

Assay [12] deals with c-KIT (DNA, G4) GGGAGGGCGCTGGGAGGAGGG
The assay is described as follows: thiazole orange displacement (G4-FID). The following applies: 100 mM KCl, 10 mM sodium cacodylate pH 7.3, 18 °C.

For assay [13], the system named is BCL2 (DNA, G4) AGGGGCGGGCGCGGGAGGAAGGGGGCGGGAGCGGGGC
The assay is described as follows: thiazole orange displacement (G4-FID). As to conditions: 100 mM KCl, 10 mM sodium cacodylate pH 7.3, 18 °C.

Assay [14] relates to KRAS (DNA, G4) GGGCGGTGTGGGAAGAGGGAAGAGGGGGAGG
In words: thiazole orange displacement (G4-FID). The following applies: 100 mM KCl, 10 mM sodium cacodylate pH 7.3, 18 °C.

Assay [15] relates to Tel (DNA, G4) GGGTTAGGGTTAGGGTTAGGGTTA
In words: thiazole orange displacement (G4-FID). As to conditions: 100 mM KCl, 10 mM sodium cacodylate pH 7.3, 18 °C.

The subject of assay [16] is DNA hairpin (DNA, hairpin) CAATCGGATCGAATTCGATCCGATTG
In words: thiazole orange displacement (G4-FID). As to conditions: 100 mM KCl, 10 mM sodium cacodylate pH 7.3, 18 °C.

In assay [17] the test system is c-MYC (DNA, G4) GGGGAGGGTGGGGAGGGTGGGGAAGG
The assay is described as follows: UV melting at 295 nm. As to conditions: 140 mM NaCl, 0.5 mM KCl; 20 mM Tris-HCl pH 7.3; 2 equivalents of compound, ~3 µM DNA.

[18] abbreviates: 1 µM thiazole orange displaced, 0.5 µM DNA.
Where [19] appears, read: thiazole orange displaced, above highest stated concentration (10 µM).
[20] abbreviates: thiazole orange displaced, highest concentration 10 µM.

On to `O=c1c(O)c(-c2ccc(O)cc2)oc2cc(O)cc(O)c12`, for which the Kb in assay [1] is reported as 1.16 ± 0.08 × 10^6 M^-1; in assay [2], 3.03 ± 0.43 × 10^6 M^-1; in assay [3], 2.09 ± 0.30 × 10^6 M^-1; in assay [4] it was 1.63 ± 0.23 × 10^6 M^-1; in [5], 1.75 ± 0.25 × 10^6 M^-1; in assay [6], 1.63 ± 0.23 × 10^6 M^-1. Besides, the Kb in [7] is on record as 1.81 ± 0.14 × 10^6 M^-1; in assay [8] it was 0.035 ± 0.002 × 10^6 M^-1. Besides, the DC50 in [9] is listed as 2.16 ± 0.15 µM; in assay [10] (setting [18]) it was 1.16 ± 0.16 µM; in assay [11] (setting [18]), 1.67 ± 0.24 µM; in assay [12] (setting [18]), 2.15 ± 0.30 µM; in [13] (setting [18]), 2.00 ± 0.28 µM; in assay [14] (setting [18]), 2.15 ± 0.31 µM. The DC50 in assay [15] (setting [18]) is 2.00 ± 0.15 µM; in assay [16] (setting [19]) it was 114.29 ± 6.53 µM.
Turning to `CC1=CC(=O)C(C(C)C)=CC1=O`, the Kb in [1] is 0.63 ± 0.04 × 10^6 M^-1; in assay [2], 2.71 ± 0.39 × 10^6 M^-1; in [3], 1.50 ± 0.21 × 10^6 M^-1; in assay [4] it was 1.61 ± 0.23 × 10^6 M^-1; in [5], 2.87 ± 0.41 × 10^6 M^-1; in assay [6], 1.52 ± 0.22 × 10^6 M^-1. In addition, in assay [7], the Kb is 1.68 ± 0.13 × 10^6 M^-1. Also, the binding entry in assay [8] (Kb printed as 0, up to 10 µM) is “no”. Also, the DC50 in [9] was determined as 3.97 ± 0.25 µM; in assay [10] (setting [18]), 1.29 ± 0.19 µM; in assay [11] (setting [18]) it was 2.33 ± 0.33 µM; in assay [12] (setting [18]) it was 2.17 ± 0.31 µM; in assay [13] (setting [18]), 1.22 ± 0.10 µM; in assay [14] (setting [18]), 2.30 ± 0.33 µM. Also, the DC50 in [15] (setting [18]) came to 2.15 ± 0.17 µM.
In the case of `O=C(O[C@@H]1Cc2c(O)cc(O)cc2O[C@@H]1c1cc(O)c(O)c(O)c1)c1cc(O)c(O)c(O)c1`, the Kb in [1] was 2.94 ± 0.20 × 10^6 M^-1; in assay [2] it was 2.75 ± 0.39 × 10^6 M^-1; in assay [3] it was 1.75 ± 0.25 × 10^6 M^-1; in assay [4], 1.44 ± 0.21 × 10^6 M^-1; in assay [5] it was 3.65 ± 0.52 × 10^6 M^-1; in assay [6], 1.62 ± 0.23 × 10^6 M^-1. The Kb in assay [7] was 1.81 ± 0.14 × 10^6 M^-1. For the same molecule, the DC50 stood at 0.85 ± 0.06 µM in [9]; 1.27 ± 0.18 µM in [10] (setting [18]); 2.00 ± 0.28 µM in [11] (setting [18]); 2.43 ± 0.35 µM in assay [12] (setting [18]); 0.96 ± 0.14 µM in assay [13] (setting [18]); 2.16 ± 0.31 µM in [14] (setting [18]). The molecule further had a DC50 in [15] (setting [18]) of 2.00 ± 0.15 µM.
With `O=c1c(O)c(-c2ccc(O)c(O)c2)oc2cc(O)cc(O)c12`, in [17], the “increase in Tm” value was determined as 3.0 ± 0.3 °C. Moreover, the Kb is reported as 5.33 ± 0.36 × 10^6 M^-1 in assay [1]; 2.07 ± 0.30 × 10^6 M^-1 in assay [2]; 3.10 ± 0.44 × 10^6 M^-1 in assay [3]; 3.80 ± 0.54 × 10^6 M^-1 in [4]; 5.56 ± 0.79 × 10^6 M^-1 in assay [5]; 1.72 ± 0.25 × 10^6 M^-1 in assay [6]. Moreover, the results for the Kb in [7] and in assay [8] were 7.43 ± 0.55 × 10^6 M^-1 and 0.038 ± 0.004 × 10^6 M^-1, respectively. Besides, the DC50 in [9] was 0.47 ± 0.03 µM; in assay [10] (setting [18]), 1.69 ± 0.24 µM; in [11] (setting [18]) it was 1.13 ± 0.16 µM; in assay [12] (setting [18]), 0.92 ± 0.13 µM; in [13] (setting [18]), 0.63 ± 0.09 µM; in assay [14] (setting [18]) it was 2.03 ± 0.30 µM. For the same molecule, the DC50 in assay [15] (setting [18]) stood at 0.49 ± 0.04 µM; in assay [16] (setting [19]), 105.26 ± 11.08 µM.
On to `C[n+]1cc2c3c(ccc2c2ccc4cc5c(cc4c21)OCO5)OCO3`, for which the “increase in Tm” value in assay [17] amounted to 3.5 ± 0.3 °C. Also, the Kb in [1] is given as 7.76 ± 0.53 × 10^6 M^-1; in assay [2], 2.83 ± 0.40 × 10^6 M^-1; in [3], 0.86 ± 0.12 × 10^6 M^-1; in assay [4], 3.28 ± 0.47 × 10^6 M^-1; in [5] it was 4.12 ± 0.59 × 10^6 M^-1; in assay [6] it was 0.93 ± 0.13 × 10^6 M^-1. In addition, the Kb in assay [7] is given as 0.43 ± 0.03 × 10^6 M^-1; in [8], 1.30 ± 0.17 × 10^6 M^-1. In addition, the DC50 in [9] was found to be 0.32 ± 0.02 µM; in assay [10] (setting [18]), 1.24 ± 0.17 µM; in assay [11] (setting [18]), 4.07 ± 0.57 µM; in [12] (setting [18]), 1.07 ± 0.15 µM; in [13] (setting [18]), 0.85 ± 0.12 µM; in [14] (setting [18]) it was 3.76 ± 0.53 µM. The values for the DC50 in [15] (setting [18]) and in assay [16] (setting [18]) were 8.42 ± 0.59 µM and 3.08 ± 0.40 µM, respectively.
In the case of `COc1cc(/C=C/C(=O)CC(=O)/C=C/c2ccc(O)c(OC)c2)ccc1O`, the Kb in [1] is given as 0.26 ± 0.02 × 10^6 M^-1. Further, the DC50 in assay [9] is reported as 9.62 ± 0.70 µM; in [10] (setting [20]), above 10 µM; in assay [11] (setting [20]), above 10 µM; in [12] (setting [20]) it was above 10 µM; in assay [13] (setting [20]) it was above 10 µM; in [14] (setting [20]), above 10 µM. In addition, in [15] (setting [20]), the DC50 was above 10 µM.
